Experiments:
[1] = tested on: dogs; experiment: Protocol RK, single dose: dose response on systemic arterial pressure and heart rate; format: in vivo; settings: for average fall in mean arterial pressure: 90 minutes after injection
Procedure: In 4 groups of dogs instrumented as in the last series of experiments (Protocol RK) the effects of increasing dose response on systemic arterial pressure was examined. The only difference from that protocol was that only one dose of berberine (as opposed to two) was administered.
The effects on the measured parameters is dose responsive. In four groups of dogs, the changes in blood pressure were analyzed. The dosage administered was7.5,15,30 and 70 mg/Kg. It was observed that generally blood pressure drop was most marked in the first 5 minutes. After 90 minutes following the injection (when the experiment wad discontinued), the average fall in mean arterial pressure in the group which received 15 mg/Kg was 19 mmHg; in the group that received 30 mg/Kg it was 37 mmHg and in the group that received 70 mg/Kg it was 63 mmHg.

[2] = tested on: patients with heart failure; experiment: Intravenous berberine in patients with heart failure, catheterization laboratory; format: in vivo
Procedure: Berberine HCI was used in patients with heart failure. […] The observations were done in a catheterization laboratory. […] Heart rate decreased in two patients and increased in one. On the average it decreased from 82 to 76 beats/min after 0.02 mg/kg/min and to 79 after 0.2 mg/kg/min. […] It is very impressive that in one patient it fell from 21 to 11 and then to 9 mmHg. Aortic systolic pressure fell from 115 mmHg to 104 and then to 108 mmHg. Aortic diastolic pressure fell from 78 to 68 and then to 67 mmHg. Aortic mean pressure fell from 93 to 80 to 84 mmHg. This is a mild fall in mean aortic pressure. […] These are very marked increases in cardiac output and cardiac index. […] These increases are again very remarkable. […] Thus, the 5 last […] indicated the profound aemelioration in ventricular performance. […] Contractility was evaluated by the indices LV-V max (left ventricular maximal shortening velocity of the contractile element) and LV-VPM (left ventricular peak measured shortening velocoty of the contracile elements).

[3] = tested on: dogs; experiment: Supraventricular arrhythmias by topical application of aconitine to the atria; format: in vivo; settings: intraveneous bolus 1-5 mg/Kg; aconitine (0.04%) solution
[4] = tested on: healthy adult mongrel dogs; experiment: Protocol M: hemodynamics in anesthetized open-chest dogs, systolic arterial pressure held constant; format: in vivo
Procedure: The experimental work was carried out as follows: Twelve healthy adult mongrel dogs (20-30 kg) of both sexes were anesthetized with intravenous sodium pentobarbital (25 mg/kg). A left thoractomy was performed through the fifth intercostal space. Catheters were placed to record left atrial, left ventricular and aortic pressures. Descending aortic blood flow was measured with an electromagnetic flowmeter. Heart rate (HR) was calculated using electocardiographic recording, lead aVF. All parameters were recorded on a Gould polygraph. The dogs were randomly assigned either to the control or to the treated group. Six of the dogs were in the control group and these dogs were infused with a placebo, namely the vehicle used for the drug tested. […] Berberine (as the hydrochloride salt) was administered to six anesthesized dogs (barbiturate). The dose was 0.7 mg/kg/min. intravenously infused durng 5 minutes. This dose was repeated after 45 minutes. Systolic arterial pressure was maintained at a constant rate using a reservoir full of blood under constant pressure connected to the femoral artery. Whenever the arterial pressure was not maintained constant in the work reported (and allowed to drop) appropriate reference is made herein to that fact. Systemic arterial pressure was maintained at a constant rate in order to obtain accurate dP/dt since this parameter is of extreme importance in these studies. However, as a consequence, the vascular peripheral resistence, when described as a function of mean aortic pressure, was higher than if the pressure would be allowed to fall with the administration of the compound. Therefore, the reduction calculated total peripheral resistence is underestimated. Also dP/dt is less increased when bradycardia (lower heart rate) occurs and since heart rate was allowed to fall (which is the effect of the drug), the increase in dP/dt reported here is actually underestimated as compared to preparations in which heart rate would have been maintained constant. In Tables I to IX the results of these experiments are presented. The first two lines presents the studied parameter in absolute values, the third line representing the "t" values used in Student's t test for group observation, between the treated and control groups. The fourth line presents the level of significance. The next four lines give the values as changes (Δ) from the value before treatment to the value after treatment. The third set of values represent the changes in percent. The last two sets of two lines represent the paired t-test values and the derived p values obtained by analyzing the data from before the infusion of the drug (last set of two lines) or the placebo (next to last set of two lines), in the subsequent time interval (i.e. after infusion). Therefore, each dog serves as his own control, thus increasing the statistical value of the tests. […] Thus, the calculated peripheral resistance increased by 18% (P <0.02).

[5] = tested on: dogs; experiment: Lethal dose, repetitive intravenous boluses; settings: repetitive intravenous boluses within 4 hours
[6] = tested on: dog; experiment: Protocol M simile: high or repetitive infusions in single dogs; format: in vivo
Procedure: It is noted that the dP/dt increased by 350% after the eighth dose and dF/dt by 450%.
In one dog using protocol M simile, 240 mg/Kg of berberine HCI was administered and dP/dt increased by 75%, aortic flow by 67%, heart rate fell from 150 to 114 beats/min., diastolic aortic pressure fell from 92 to 67 mmHg, and left atrial pressure fell from 8.5 to 7.5 mmHg.
When this type of experiment was repeated with tetrahydropalmatine, a first dose of 3.5 mg/Kg was given without maintaining the pressure constant and arterial pressure fell from 142/115 to 118/90 mmHg. When the second infusion was given with constant pressure, dP/dt increased by 17%.

[7] = one dog, after the eighth dose, 0.7 mg/kg/min repeated up to 56 mg/Kg

In the case of `COc1ccc2cc3[n+](cc2c1OC)CCc1cc2c(cc1-3)OCO2` [berberine], the “decrease of heart rate” value ([1]; 7.5 mg/Kg) is reported as 20 beats/min, the “decrease of heart rate” value ([1]; 15 mg/Kg) is reported as 16 beats/min and the “average fall in mean arterial pressure” value ([1]; 15 mg/Kg) is reported as 19 mmHg. For the same compound, the “average fall in mean arterial pressure” value ([1]; 30 mg/Kg) was 37 mmHg, the “decrease of heart rate” value ([1]; 35 mg/Kg) was 40 beats/min and the “decrease of heart rate” value ([1]; 70 mg/Kg) was 103 beats/min. For the same compound, the “average fall in mean arterial pressure” value ([1]; 70 mg/Kg) was 63 mmHg, the primary arrhythmias ([1]; 7.5 to 70 mg/Kg) was “No primary arrhythmias were obtained” and the side effects ([2]; 0.002 mg/kg/min 30 minutes then 0.02 mg/kg/min 30 minutes, 3 patients) was “without untoward side effects”. The side effects ([2]; 0.2 mg/kg/min, one patient) was “without untoward side effects”, the side effects ([2]; 3 patients with cardiomyopathy, 0.02 then 0.2 mg/kg/min, 15 minutes each) was “None of the patients had side effects” and the cardiac index ([2]; after 0.02 mg/kg/min, from 2.9) was 3.7 fiters/min/m^2. The cardiac output ([2]; after 0.02 mg/kg/min, from 5.1) was 6.6 L/min, the “Left ventricular end diastolic pressure” value ([2]; after 0.02 mg/kg/min, from 22) was 16 mmHg and the ejection fraction ([2]; after 0.02 mg/kg/min, from 32) was 36%. The stroke index ([2]; after 0.02 mg/kg/min, from 36) was 50 ml/m^2, the Stroke volume ([2]; after 0.02 mg/kg/min, from 62) was 89 mL and the Aortic diastolic pressure ([2]; after 0.02 mg/kg/min, from 78) was 68 mmHg. The “Heart rate, average” value ([2]; after 0.02 mg/kg/min, from 82) was 76 beats/min, the Aortic mean pressure ([2]; after 0.02 mg/kg/min, from 93) was 80 mmHg and the Aortic systolic pressure ([2]; after 0.02 mg/kg/min, from 115) was 104 mmHg. The “Left ventricular systolic pressure” value ([2]; after 0.02 mg/kg/min, from 116) was 106 mmHg, the “Calculated systemic peripheral resistance” value ([2]; after 0.02 mg/kg/min, from 1339) was 883 10^-5N·S·cm^-5 and the Aortic diastolic pressure ([2]; after 0.2 mg/kg/min) was 67 mmHg. For the same compound, the Aortic mean pressure ([2]; after 0.2 mg/kg/min) was 84 mmHg, the Aortic systolic pressure ([2]; after 0.2 mg/kg/min) was 108 mmHg and the “Calculated systemic peripheral resistance” value ([2]; after 0.2 mg/kg/min) was 794 10^-5N·S·cm^-5. For the same compound, the Heart rate, average ([2]; after 0.2 mg/kg/min) was 79 beats/min, the “Left ventricular end diastolic pressure” value ([2]; after 0.2 mg/kg/min) was 15 mmHg and the “Left ventricular systolic pressure” value ([2]; after 0.2 mg/kg/min) was 110 mmHg. It also gave a Stroke volume ([2]; after 0.2 mg/kg/min) of 102 mL, a cardiac index ([2]; after 0.2 mg/kg/min) of 4.2 fiters/min/m^2 and a cardiac output ([2]; after 0.2 mg/kg/min) of 7.4 L/min. For the same compound, the ejection fraction ([2]; after 0.2 mg/kg/min) was 40%, the stroke index ([2]; after 0.2 mg/kg/min) was 58 ml/m^2 and the “LV-VPM (left ventricular peak measured shortening velocoty of the contracile elements)” value ([2]; after berberine, from 0.7) was 0.9. For the same compound, the “LV-V max (left ventricular maximal shortening velocity of the contractile element)” value ([2]; after berberine, from 0.9) was 1.1, the “Left ventricular end diastolic pressure” value ([2]; one patient, after 0.02 mg/kg/min, from 21) was 11 mmHg and the “Left ventricular end diastolic pressure” value ([2]; one patient, after 0.2 mg/kg/min) was 9 mmHg. The “atrial ectopic beats, atrial tachycardia or atrial fibrillation” value [3] was “effective in abolishing these arrhythmias”, the “diastolic aortic pressure (DAP)” value ([4]; after treatment, from 84 before) was 62 mmHg and the “increase in peak blood flow velocity” value ([4]; descending aorta) was roughly 50%. The “arrhythmias during the experimental period” value ([4]; dog, in vivo) was “did not develop any type of arrhythmias”, the “drop of DAP” value ([4]; dog, in vivo) was 20 mmHg and the “reduction in HR” value ([4]; dog, in vivo) was 9 beats/min. The “difference in dP/dt between the control group and the berberine-treated group” value ([4]; end of experiment) was 50%, the “dP/dt maximum of the left ventrical” value ([4]; end of experiment, 0.7 mg/kg/min i.v. 5 min, repeated after 45 min, control 2009 ± 132) was 2974 ± 121 mmHg/s and the “increase in the acceleration of blood flow (dF/dt)” value ([4]; first vs last column of Table III) was roughly 65%. The “mean left artrial pressure (LAP)” value ([4]; initial 1 or 2 mmHg) was “no change”, the “left ventricular end diastolic pressure (LVEDP)” value ([4]; normal, averaging 3 mmHg) was “no change” and the “increase of dF/dt” value ([4]; summary statement) was “at least 50%”. The “increase of dP/dt” value ([4]; summary statement) was “at least 50%”, the “average dose resulting in death due to arterial systemic hypotension” value [5] was 120 mg/kg and the arrhythmias ([6]; one dog, 240 mg/Kg) was “No arrhythmias were noted”. For the same compound, the “increase of aortic flow” value ([6]; one dog, 240 mg/Kg) was 67%, the “increase of dP/dt” value ([6]; one dog, 240 mg/Kg) was 75% and the left atrial pressure ([6]; one dog, 240 mg/Kg, from 8.5) was 7.5 mmHg. For the same compound, the diastolic aortic pressure ([6]; one dog, 240 mg/Kg, from 92) was 67 mmHg, the heart rate ([6]; one dog, 240 mg/Kg, from 150) was 114 beats/min and the “increase of dF/dt” value [6, 7] was 450%. For the same compound, the “increase of dP/dt” value [6, 7] was 350% and the arrhythmias ([6]; one dog, up to 56 mg/Kg) was “No arrhythmias were observed”.
For `COc1ccc2cc3[n+](cc2c1O)CCc1cc2c(cc1-3)OCO2` [berberrubine], the “result of the corresponding Protocol M experiments (dP/dt, peak blood flow, acceleration of flow, heart rate, diastolic pressure)” value ([4]; dog, in vivo) was “like results are obtained”.
In the case of `COc1cc2c(cc1O)C[C@H]1c3cc(O)c(OC)cc3CCN1C2` [coreximine], the “result of the corresponding Protocol M experiments (dP/dt, peak blood flow, acceleration of flow, heart rate, diastolic pressure)” value ([4]; dog, in vivo) is reported as “like results are obtained” and the “result when the experiments are repeated” value ([6]; dog, in vivo) is reported as “comparable results are obtained”.
